Assay results as given in patent publication US7947706B2, “Substituted pyrrolopyridines, compositions containing them, manufacturing process therefor and use thereof” (Sanofi-Aventis Deutschland GmbH, priority 2005, dated 2011).

melting point [°C]	SMILES
256	NC(=O)c1[nH]c2cnccc2c1-c1ccc(NC(=O)Nc2cccc(C(F)(F)F)c2)cc1 [Example 36, 3-{4-[3-(3-Trifluoromethylphenyl)ureido]phenyl}-1H-pyrrolo-[2,3-c]pyridine-2-carboxamide]
327.7	COc1ccc(C)cc1NC(=O)Nc1ccc(-c2c(C(N)=O)[nH]c3ncccc23)cc1 [Example 22, 3-{4-[3-(2-Methoxy-5-methylphenyl)ureido]phenyl}-1H-pyrrolo[2,3-b]pyridine-2-carboxamide]
242	NC(=O)c1[nH]c2cnccc2c1-c1ccc(NC(=O)Nc2ccccc2F)cc1 [Example 47, 3-{4-[3-(2-Fluorophenyl)ureido]phenyl}-1H-pyrrolo[2,3-c]-pyridine-2-carboxamide]
293	Cc1ccc(NC(=O)Nc2ccc(-c3c(C(N)=O)[nH]c4ncccc34)cc2)cc1 [Example 25, 3-[4-(3-p-Tolylureido)phenyl]-1H-pyrrolo[2,3-b]pyridine-2-carboxamide]
265.4	NC(=O)c1[nH]c2ncccc2c1-c1ccc(NC(=O)Nc2cccc(C(F)(F)F)c2F)cc1 [Example 13, 3-{4-[3-(2-Fluoro-3-trifluoromethylphenyl)ureido]phenyl}-1H-pyrrolo[2,3-b]pyridine-2-carboxamide]
214	NC(=O)c1[nH]c2cnccc2c1-c1ccc(NC(=O)Nc2ccc(F)c(Cl)c2)cc1.O=C(O)C(F)(F)F
201	NC(=O)c1[nH]c2cnccc2c1-c1ccc(NC(=O)Nc2ccc(F)c(C(F)(F)F)c2)cc1 [Example 51, 3-{4-[3-(4-Fluoro-3-trifluoromethylphenyl)ureido]phenyl}-1H-pyrrolo[2,3-c]pyridine-2-carboxamide]
228	NC(=O)c1[nH]c2cnccc2c1-c1ccc(NC(=O)Nc2ccccc2C(F)(F)F)cc1 [Example 35, 3-{4-[3-(2-Trifluoromethylphenyl)ureido]phenyl}-1H-pyrrolo[2,3-c]pyridine-2-carboxamide]
188	Cc1cc(C)cc(NC(=O)Nc2ccc(-c3c(C(N)=O)[nH]c4cnccc34)cc2)c1 [Example 59, 3-{4-[3-(3,5-Dimethylphenyl)ureido]phenyl}-1H-pyrrolo[2,3-c]pyridine-2-carboxamide]
270	Cc1ccccc1NC(=O)Nc1ccc(-c2c(C(N)=O)[nH]c3cnccc23)cc1 [Example 56, 3-[4-(3-o-Tolylureido)phenyl]-1H-pyrrolo[2,3-c]pyridine-2-carboxamide]
257	CCc1cccc(NC(=O)Nc2ccc(-c3c(C(N)=O)[nH]c4cnccc34)cc2)c1 [Example 60, 3-{4-[3-(3-Ethylphenyl)ureido]phenyl}-1H-pyrrolo[2,3-c]-pyridine-2-carboxamide]
266.5	COc1cc(NC(=O)Nc2ccc(-c3c(C(N)=O)[nH]c4ncccc34)cc2)cc(OC)c1 [Example 28, 3-{4-[3-(3,5-Dimethoxyphenyl)ureido]phenyl}-1H-pyrrolo-[2,3-b]pyridine-2-carboxamide]
257	NC(=O)c1[nH]c2cnccc2c1-c1ccc(NC(=O)Nc2ccc(OC(F)F)cc2)cc1 [Example 43, 3-{4-[3-(4-Difluoromethoxyphenyl)ureido]phenyl}-1H-pyrrolo[2,3-c]pyridine-2-carboxamide]
296.2	NC(=O)c1[nH]c2ncccc2c1-c1ccc(NC(=O)Nc2ccc(C(F)(F)F)cc2)cc1 [Example 11, 3-{4-[3-(4-Trifluoromethylphenyl)ureido]phenyl}-1H-pyrrolo-[2,3-b]pyridine-2-carboxamide]
227.1	COc1ccccc1NC(=O)Nc1ccc(-c2c(C(N)=O)[nH]c3ncccc23)cc1 [Example 10, 3-{4-[3-(2-Methoxyphenyl)ureido]phenyl}-1H-pyrrolo[2,3-b]-pyridine-2-carboxamide]
230	Cc1ccc(NC(=O)Nc2ccc(-c3c(C(N)=O)[nH]c4cnccc34)cc2)cc1C [Example 44, 3-{4-[3-(3,4-Dimethylphenyl)ureido]phenyl}-1H-pyrrolo[2,3-c]pyridine-2-carboxamide]
243	NC(=O)c1[nH]c2cnccc2c1-c1ccc(NC(=O)Nc2cc(C(F)(F)F)ccc2Cl)cc1 [Example 41, 3-{4-[3-(2-Chloro-5-trifluoromethylphenyl)ureido]phenyl}-1H-pyrrolo[2,3-c]pyridine-2-carboxamide]
254	CCc1cccc(NC(=O)Nc2ccc(-c3c(C(N)=O)[nH]c4ncccc34)cc2)c1 [Example 61, 3-{4-[3-(3-Ethylphenyl)ureido]phenyl}-1H-pyrrolo[2,3-b]-pyridine-2-carboxamide]

melting point [°C]	SMILES
308.8	Cc1ccc(C)c(NC(=O)Nc2ccc(-c3c(C(N)=O)[nH]c4ncccc34)cc2)c1 [Example 18, 3-{4-[3-(2,5-Dimethylphenyl)ureido]phenyl}-1H-pyrrolo[2,3-b]pyridine-2-carboxamide]
220	NC(=O)c1[nH]c2c(ccc[n+]2[O-])c1-c1ccc(NC(=O)Nc2cc(C(F)(F)F)ccc2F)cc1 [Example 8, 3-{4-[3-(2-Fluoro-5-trifluoromethylphenyl)ureido]phenyl}-7-oxy-1H-pyrrolo[2,3-b]pyridine-2-carboxamide]
258.9	NC(=O)c1[nH]c2ncccc2c1-c1ccc(NC(=O)Nc2ccc(OC(F)(F)F)cc2)cc1 [Example 16, 3-{4-[3-(4-Trifluoromethoxyphenyl)ureido]phenyl}-1H-pyrrolo[2,3-b]pyridine-2-carboxamide]
274.7	Cc1ccc(NC(=O)Nc2ccc(-c3c(C(N)=O)[nH]c4ncccc34)cc2)cc1C [Example 21, 3-{4-[3-(3,4-Dimethylphenyl)ureido]phenyl}-1H-pyrrolo[2,3-b]pyridine-2-carboxamide]
311.1	NC(=O)c1[nH]c2ncccc2c1-c1ccc(NC(=O)Nc2ccc(Cl)c(C(F)(F)F)c2)cc1 [Example 29, 3-{4-[3-(4-Chloro-3-trifluoromethylphenyl)ureido]phenyl}-1H-pyrrolo[2,3-b]pyridine-2-carboxamide]
221	COc1ccc(C(F)(F)F)cc1NC(=O)Nc1ccc(-c2c(C(N)=O)[nH]c3ncccc23)cc1 [Example 32, 3-{4-[3-(2-Methoxy-5-trifluoromethylphenyl)ureido]phenyl}-1H-pyrrolo[2,3-b]pyridine-2-carboxamide]
283.5	NC(=O)c1[nH]c2ncccc2c1-c1ccc(NC(=O)Nc2ccc(OC(F)F)cc2)cc1 [Example 27, 3-{4-[3-(4-Difluoromethoxyphenyl)ureido]phenyl}-1H-pyrrolo[2,3-b]pyridine-2-carboxamide]
261	Cc1ccc(C)c(NC(=O)Nc2ccc(-c3c(C(N)=O)[nH]c4cnccc34)cc2)c1 [Example 46, 3-{4-[3-(2,5-Dimethylphenyl)ureido]phenyl}-1H-pyrrolo[2,3-c]pyridine-2-carboxamide]
234.7	NC(=O)c1[nH]c2ncccc2c1-c1ccc(NC(=O)Nc2ccc(F)c(C(F)(F)F)c2)cc1 [Example 14, 3-{4-[3-(4-Fluoro-3-trifluoromethylphenyl)ureido]phenyl}-1H-pyrrolo[2,3-b]pyridine-2-carboxamide]
266	Cc1cccc(NC(=O)Nc2ccc(-c3c(C(N)=O)[nH]c4ncccc34)cc2)c1 [Example 23, 3-[4-(3-m-Tolylureido)phenyl]-1H-pyrrolo[2,3-b]pyridine-2-carboxamide]
275	COc1ccc(NC(=O)Nc2ccc(-c3c(C(N)=O)[nH]c4cnccc34)cc2)cc1 [Example 57, 3-{4-[3-(4-Methoxyphenyl)ureido]phenyl}-1H-pyrrolo[2,3-c]pyridine-2-carboxamide]
271	NC(=O)c1[nH]c2cnccc2c1-c1ccc(NC(=O)Nc2ccc(F)cc2)cc1 [Example 37, 3-{4-[3-(4-Fluorophenyl)ureido]phenyl}-1H-pyrrolo[2,3-c]-pyridine-2-carboxamide]
225	COc1cc(NC(=O)Nc2ccc(-c3c(C(N)=O)[nH]c4cnccc34)cc2)cc(OC)c1 [Example 45, 3-{4-[3-(3,5-Dimethoxyphenyl)ureido]phenyl}-1H-pyrrolo-[2,3-c]pyridine-2-carboxamide]
263.6	NC(=O)c1[nH]c2ncccc2c1-c1ccc(NC(=O)Nc2cccc(C(F)(F)F)c2)cc1 [Example 20, 3-{4-[3-(3-Trifluoromethylphenyl)ureido]phenyl}-1H-pyrrolo-[2,3-b]pyridine-2-carboxamide]
199	Cc1ccc(NC(=O)Nc2ccc(-c3c(C(N)=O)[nH]c4cnccc34)cc2)cc1C(F)(F)F [Example 52, 3-{4-[3-(4-Methyl-3-trifluoromethylphenyl)ureido]phenyl}-1H-pyrrolo[2,3-c]pyridine-2-carboxamide]
299.9	NC(=O)c1[nH]c2ncccc2c1-c1ccc(NC(=O)Nc2ccc(F)cc2)cc1 [Example 24, 3-{4-[3-(4-Fluorophenyl)ureido]phenyl}-1H-pyrrolo[2,3-b]-pyridine-2-carboxamide]
223.7	COc1ccc(NC(=O)Nc2ccc(-c3c(C(N)=O)[nH]c4ncccc34)cc2)cc1OC [Example 17, 3-{4-[3-(3,4-Dimethoxyphenyl)ureido]phenyl}-1H-pyrrolo-[2,3-b]pyridine-2-carboxamide]
